In patent US20200000976A1, “A MEDICAL IMPLANT AND A METHOD OF COATING A MEDICAL IMPLANT” (priority 2016, published 2020):

Assays:
[1] = tested on: osteoblasts derived from trabecular bone; conditions: cited from earlier work
[2] = binding and release of antimicrobial silver on Ti, PCL and PEEK (previous in house work); type: physicochemical
[3] = Palacos cement; cited from earlier work
[4] = Palacos cement; cited from earlier work; remark: listed apart in the source

NC[C@H]1O[C@H](O[C@H]2[C@H](O)[C@@H](O[C@H]3O[C@H](CO)[C@@H](O)[C@H](N)[C@H]3O)[C@H](N)C[C@@H]2N)[C@H](N)C[C@@H]1O [Tobramycin, tobramycin]
higher concentrations at which replication decreases and eventually cell death occurs [1]: > 400 µg/mL
low levels with no or little effect on the replication of osteoblasts [1]: < 200 µg/mL

[Ag] [antimicrobial silver, silver]
time of release above MIC [2]: 40 days
released level (above MIC) ([2]; for 40 days): above 1 ug/mL

CN[C@H](CC(C)C)C(=O)N[C@H]1C(=O)N[C@@H](CC(N)=O)C(=O)N[C@H]2C(=O)N[C@H]3C(=O)N[C@H](C(=O)N[C@H](C(=O)O)c4cc(O)cc(O)c4-c4cc3ccc4O)[C@H](O)c3ccc(c(Cl)c3)Oc3cc2cc(c3O[C@@H]2O[C@H](CO)[C@@H](O)[C@H](O)[C@H]2O[C@H]2C[C@](C)(N)[C@H](O)[C@H](C)O2)Oc2ccc(cc2Cl)[C@H]1O [vancomycin]
high concentrations at which cell death of osteoblasts occurs [1]: 10,000 /mL
low levels with no or little effect on the replication of osteoblasts [1]: < 1 µg/mL

gentamicin
levels impeding 3H-thymidine levels [1]: > 100 mL⁻¹
elution from cement at low doses [3]: very little elution occurs
effects at high concentrations [4]: local cytotoxic effects

teicoplanin
elution from cement at low doses [3]: very little elution occurs
effects at high concentrations [4]: local cytotoxic effects
